Experimental data taken from BindingDB's records for patent US11548890 (Nimbus Saturn, 2023).

Target: Mitogen-activated protein kinase kinase kinase kinase 1 (Homo sapiens, UniProt Q92918)
Assay: HPK1 Biochemical Enzyme Assay
Method: HPK1 biochemical enzyme assay: HPK1 enzyme inhibition was measured using a microfluidic mobility shift assay. […] Test compounds were titrated in ten point curves (top final assay concentration 3 μM), and preincubated with enzyme/substrate mix for 30 min prior to initiation of the reaction by addition of ATP (1 mM final concentration) and substrate (1 μM final concentration; Carna Biosciences) diluted in assay buffer supplemented by MgCl2 (final assay concentration of 5 mM). Following 60 min incubation at RT, the reaction was terminated by addition of 60 μl/well termination buffer (Carna Biosciences) and signal determination using a Caliper EZ Reader (Perkin Elmer, UK).

Chain of Mitogen-activated protein kinase kinase kinase kinase 1 (Q92918 whole entry): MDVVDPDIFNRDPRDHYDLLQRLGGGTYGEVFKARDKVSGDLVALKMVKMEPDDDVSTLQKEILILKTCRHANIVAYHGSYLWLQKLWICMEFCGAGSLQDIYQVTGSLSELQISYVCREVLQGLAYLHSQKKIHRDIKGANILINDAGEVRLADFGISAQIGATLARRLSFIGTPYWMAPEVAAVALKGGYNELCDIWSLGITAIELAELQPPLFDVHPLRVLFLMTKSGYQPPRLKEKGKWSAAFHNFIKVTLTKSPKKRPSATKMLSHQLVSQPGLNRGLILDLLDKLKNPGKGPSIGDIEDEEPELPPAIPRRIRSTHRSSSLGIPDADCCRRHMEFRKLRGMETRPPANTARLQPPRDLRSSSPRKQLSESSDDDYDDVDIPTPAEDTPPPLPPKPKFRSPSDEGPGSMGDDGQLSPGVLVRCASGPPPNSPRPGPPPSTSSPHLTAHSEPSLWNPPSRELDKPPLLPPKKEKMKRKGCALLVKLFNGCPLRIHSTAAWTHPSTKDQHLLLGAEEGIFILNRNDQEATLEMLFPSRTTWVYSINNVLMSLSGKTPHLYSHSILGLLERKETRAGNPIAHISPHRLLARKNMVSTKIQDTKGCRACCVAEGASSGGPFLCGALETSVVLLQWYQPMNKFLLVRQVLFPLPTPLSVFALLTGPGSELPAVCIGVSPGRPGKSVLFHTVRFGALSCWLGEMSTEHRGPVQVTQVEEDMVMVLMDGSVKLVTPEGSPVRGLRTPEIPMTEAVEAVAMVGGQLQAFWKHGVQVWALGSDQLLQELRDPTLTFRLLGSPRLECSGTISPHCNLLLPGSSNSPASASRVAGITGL

| IC50 | SMILES |
| --- | --- |
| in the range around 550 nM | COC1CCN(c2ccc(Nc3ccc(-c4cnc5c(F)cccn45)c4c3C(=O)NC4)nc2)CC1 [US11548890, Compound I-455] |
| < 100 nM | CC(C)(O)[C@H]1CN(c2ccc(Nc3cnc(-c4cnc5cnccn45)c4c3C(=O)NC4)nc2)CCO1 [US11548890, Compound I-486] |
| < 100 nM | CC1=CC2N=CC(c3ccc(Nc4ccc(N5CCC(O)CC5)cn4)c4c3CNC4=O)=C2C=C1 (centres undefined) [US11548890, Compound I-137] |
| < 100 nM | CN(C)Cc1nc(Nc2ccc(-c3cnc4ccccn34)c3c2C(=O)NC3)ccc1[C@@H]1CCOC1 [US11548890, Compound I-714] |
